Experimental data reported in US9701676B2, “Pro-neurogenic compounds” (Board of Regents of The University of Texas System, priority 2012, dated 2017).

System: proliferating neural precursor cells in the hippocampus (subgranular layer of the dentate gyrus)
Experiment: standard in vivo hippocampal neurogenesis assay (BrdU labelling, week-long intracranial mini-pump infusion)
Design: species or system mouse (C57/B6)
Settings: 10 μM concentration, seven days of infusion at 0.5 μL/hour, daily IP BrdU; four 12 week old adult male C57/B6 mice; vehicle 14.5
Experimental: Compounds were administered at a concentration of 10 μM for each molecule. After seven days of infusion at a constant rate of 0.5 μL/hour, a total of 84 μL of volume will have left the pump (0.00084 μMoles) and entered the cerebrospinal fluid. The average volume of a brain from a 12 week old male, C57/B6 mouse in the study is 500 mm^3. […] Under these conditions, at the end of one week of infusion each compound would be present at 1.7 μMolar concentration. Since the actual amount of chemical compound in the brain is likely to be only a fraction of this predicted level, it is reasonable to estimate that compounds were administered at mid to low-nanomolar concentrations.
During compound infusion, animals were intraperitoneally (IP) injected daily with the thymidine analog, bromodeoxyuridine (BrdU), as a means of scoring the birth and survival of proliferating neural precursor cells in the hippocampus. Because both social interaction and voluntary exercise are known to stimulate hippocampal neurogenesis, mice were housed individually without access to running wheels throughout the screening period. Following the week-long period of compound administration, animals were perfused and sacrificed. Dissected brain tissue was fixed, embedded, sectioned, stained with antibodies to BrdU, and evaluated by light microcopy as a means of quantifying neurogenesis and survival of newborn neural precursor cells localized to the subgranular layer of the dentate gyms on the brain hemisphere contralateral to the side of mini-pump cannulation. Every fifth section throughout the entire rostral-caudal extent of the hippocampus was analyzed, and the total number of BrdU+ cells was normalized against the measured volume of the dentate gyms.
Intracranial infusions of either fibroblast growth factor 2 (FGF-2) or artificial cerebral spinal fluid (aCSF) vehicle via the same, week-long protocol were employed as positive and negative controls.
Compounds were evaluated for pro-neurogenic efficacy/neuroprotection in a standard in vivo hippocampal neurogenesis assay at 10 μM concentration in four 12 week old adult male C57/B16 mice.

SMILES | (×10^−06) BrdU+ cells/mm^3 dentate gyrus
N#Cc1ccc2[nH]c3ccc(Br)cc3c2c1 [P7C3-S216, 6-bromo-9H-carbazole-3-carbonitrile] | 25.9 (×10^−06) BrdU+ cells/mm^3
N#CCn1c2ccc(Br)cc2c2cc(Br)ccc21 [P7C3-S235, 2-(3,6-dibromo-9H-carbazol-9-yl)acetonitrile] | 23.4 (×10^−06) BrdU+ cells/mm^3
NC(Cc1c[nH]c2ccc(Br)cc12)C(=O)O (racemic) [P7C3-S207, 5-bromo-DL-tryptophan, reference compound] | 32.4 (×10^−06) BrdU+ cells/mm^3
COc1ccc2[nH]c3ccc(Br)cc3c2c1 [P7C3-S209, 3-bromo-6-methoxy-9H-carbazole] | 30 (×10^−06) BrdU+ cells/mm^3
CN(C)CC(F)CN1c2ccccc2CCc2ccccc21 (stereo not shown) [P7C3-S148, 3-(10,11-dihydro-5H-dibenzo[b,f]azepin-5-yl)-2-fluoro-N,N-dimethylpropan-1-amine] | 22.6 (×10^−06) BrdU+ cells/mm^3
COc1ccc(S(=O)(=O)N(CC(F)Cn2c3ccc(Br)cc3c3cc(Br)ccc32)c2cccc(OC)c2)cc1 (stereo not shown) [P7C3-S258, N-(3-(3,6-dibromo-9H-carbazol-9-yl)-2-fluoropropyl)-4-methoxy-N-(3-methoxyphenyl)benzenesulfonamide] | 29.8 (×10^−06) BrdU+ cells/mm^3
CCOC(=O)C1=NCc2c(c3ccccc3n2S(=O)(=O)c2ccc(C)cc2)N1 [P7C3-S247, ethyl 5-tosyl-4,5-dihydro-1H-pyrimido[5,4-b]indole-2-carboxylate] | 31.1 (×10^−06) BrdU+ cells/mm^3
O=C(O)c1cc2c(cn1)[nH]c1ccc(Br)cc12 [P7C3-S206, 6-bromo-9H-pyrido[3,4-b]indole-3-carboxylic acid] | 29.6 (×10^−06) BrdU+ cells/mm^3
O=C(O)CN1c2ccccc2CCc2ccccc21 [P7C3-S210, 2-(10,11-dihydro-5H-dibenzo[b,f]azepin-5-yl)acetic acid] | 21.4 (×10^−06) BrdU+ cells/mm^3
O=C(O)Cn1c2ccc(Br)cc2c2cc(C(=O)O)ccc21 [P7C3-S239, 6-bromo-9-(carboxymethyl)-9H-carbazole-3-carboxylic acid] | 22.8 (×10^−06) BrdU+ cells/mm^3
COc1cccc(N(CC(O)Cn2c3ccc(Br)cc3c3cc(Br)ccc32)S(=O)(=O)c2ccccc2)c1 (stereo not shown) [P7C3-S252, N-(3-(3,6-dibromo-9H-carbazol-9-yl)-2-hydroxypropyl)-N-(3-methoxyphenyl)benzenesulfonamide] | 33.2 (×10^−06) BrdU+ cells/mm^3
Cc1ccc2c(c1)c1cc(Br)ccc1n2C [P7C3-S280, 3-bromo-6,9-dimethyl-9H-carbazole] | 25.1 (×10^−06) BrdU+ cells/mm^3
O=C(O)c1ccc2[nH]c3ccc(Br)cc3c2c1 [P7C3-S225, 6-bromo-9H-carbazole-3-carboxylic acid] | 30.4 (×10^−06) BrdU+ cells/mm^3
N#Cc1[nH]c2ccc(Br)cc2c1N [P7C3-S222, 3-amino-5-bromo-1H-indole-2-carbonitrile] | 30.1 (×10^−06) BrdU+ cells/mm^3
OC(CSc1ccccc1)CN1c2ccccc2CCc2ccccc21 (stereo not shown) [P7C3-S134, 1-(10,11-dihydro-5H-dibenzo[b,f]azepin-5-yl)-3-(phenylthio)propan-2-ol] | 19.4 (×10^−06) BrdU+ cells/mm^3
O=C(O)CCc1c[nH]c2ccccc12 [P7C3-S242, 3-indolepropionic acid, reference compound] | 21.5 (×10^−06) BrdU+ cells/mm^3
CN(C)C(CF)CN1c2ccccc2CCc2ccccc21 (stereo not shown) [P7C3-S149, 1-(10,11-dihydro-5H-dibenzo[b,f]azepin-5-yl)-3-fluoro-N,N-dimethylpropan-2-amine] | 23.2 (×10^−06) BrdU+ cells/mm^3
OC(CN1c2ccccc2CCc2ccccc21)Cn1ccc2ccccc21 (stereo not shown) [P7C3-S132, 1-(10,11-dihydro-5H-dibenzo[b,f]azepin-5-yl)-3-(1H-indol-1-yl)propan-2-ol] | 22.8 (×10^−06) BrdU+ cells/mm^3
CC(C)(C)NCC(O)CN1c2ccccc2CCc2ccccc21 (stereo not shown) [P7C3-S145, 1-(tert-butylamino)-3-(10,11-dihydro-5H-dibenzo[b,f]azepin-5-yl)propan-2-ol] | 25 (×10^−06) BrdU+ cells/mm^3

SMILES | (×10^−06) BrdU+ cells/mm^3 dentate gyrus
OCCn1c2ccc(Br)cc2c2cc(Br)ccc21 [P7C3-S171, 2-(3,6-dibromo-9H-carbazol-9-yl)ethanol] | 26.2 (×10^−06) BrdU+ cells/mm^3
CCCN(CCC)C(=O)Cc1c(-c2ccc(Cl)cc2)nc2ccc(Cl)cn12 [P7C3-S265, 6-Chloro-2-(4-chlorophenyl)-N,N-dipropyl-imidazo[1,2-a]pyridine-3-acetamide, reference compound] | 29.3 (×10^−06) BrdU+ cells/mm^3
Cn1c2ccc(Br)cc2c2cc(Br)ccc21 [P7C3-S163, 3,6-dibromo-9-methyl-9H-carbazole] | 24.2 (×10^−06) BrdU+ cells/mm^3
CC(C)(O)Cn1c2ccc(Br)cc2c2cc(Br)ccc21 [P7C3-S169, 1-(3,6-dibromo-9H-carbazol-9-yl)-2-methylpropan-2-ol] | 18.4 (×10^−06) BrdU+ cells/mm^3
CN(C)c1nc(O)c2[nH]c3ccccc3c2n1 [P7C3-S245, 2-(dimethylamino)-5H-pyrimido[5,4-b]indol-4-ol] | 32.4 (×10^−06) BrdU+ cells/mm^3
COc1nc(N(C)C)nc2c3cc(Br)ccc3n(C)c12 [P7C3-S275, 8-bromo-4-methoxy-N,N,5-trimethyl-5H-pyrimido[5,4-b]indol-2-amine] | 20.5 (×10^−06) BrdU+ cells/mm^3
CNCC(O)CN1c2ccccc2CCc2ccccc21 (stereo not shown) [P7C3-S143, 1-(10,11-dihydro-5H-dibenzo[b,f]azepin-5-yl)-3-(methylamino)propan-2-ol] | 14.5 (×10^−06) BrdU+ cells/mm^3
COc1cccc(N(CC(O)Cn2c3ccc(Br)cc3c3cc(Br)ccc32)S(C)(=O)=O)c1 (stereo not shown) [P7C3-S251, N-(3-(3,6-dibromo-9H-carbazol-9-yl)-2-hydroxypropyl)-N-(3-methoxyphenyl)methanesulfonamide] | 17.7 (×10^−06) BrdU+ cells/mm^3
CCOC(=O)C1=C[C@]2(CC)CCCN3CCc4c(n1c1ccccc41)[C@@H]32 [P7C3-S199, Vinpocetine, reference compound] | 26.5 (×10^−06) BrdU+ cells/mm^3
CC(C(=O)O)n1c2ccc(Br)cc2c2cc(Br)ccc21 (stereo not shown) [P7C3-S211, 2-(3,6-dibromo-9H-carbazol-9-yl)propanoic acid] | 23 (×10^−06) BrdU+ cells/mm^3
Cc1ccc2[nH]c3ccc(Br)cc3c2c1 [P7C3-S228, 3-bromo-6-methyl-9H-carbazole] | 40.3 (×10^−06) BrdU+ cells/mm^3
N[C@@H](Cc1c[nH]c2ccc(O)cc12)C(=O)O [P7C3-S249, L-5-hydroxy-tryptophan, reference compound] | 34.8 (×10^−06) BrdU+ cells/mm^3
N[C@@H](Cc1c[nH]c2ccccc12)C(=O)O [P7C3-S248, L-tryptophan, reference compound] | 20.1 (×10^−06) BrdU+ cells/mm^3
COc1cccc(N(CC(F)Cn2c3ccc(Br)cc3c3cc(Br)ccc32)S(C)(=O)=O)c1 (stereo not shown) [P7C3-S256, N-(3-(3,6-dibromo-9H-carbazol-9-yl)-2-fluoropropyl)-N-(3-methoxyphenyl)methanesulfonamide] | 31.5 (×10^−06) BrdU+ cells/mm^3
CC(C)NCC(O)CN1c2ccccc2CCc2ccccc21 (stereo not shown) [P7C3-S144, 1-(10,11-dihydro-5H-dibenzo[b,f]azepin-5-yl)-3-(isopropylamino)propan-2-ol] | 18.1 (×10^−06) BrdU+ cells/mm^3
CN(C)CC(O)CN1c2ccccc2CCc2ccccc21 (stereo not shown) [P7C3-S139, 1-(10,11-dihydro-5H-dibenzo[b,f]azepin-5-yl)-3-(dimethylamino)propan-2-ol] | 24.9 (×10^−06) BrdU+ cells/mm^3
Brc1ccc2[nH]c3ccc(Br)cc3c2c1 [P7C3-S162, 3,6-dibromo-9H-carbazole] | 25.2 (×10^−06) BrdU+ cells/mm^3
Cc1ccc2c(c1)c1cc(Br)ccc1n2CC(=O)O [P7C3-S240, 2-(3-bromo-6-methyl-9H-carbazol-9-yl)acetic acid] | 28.5 (×10^−06) BrdU+ cells/mm^3
